In ChEMBL document CHEMBL1201862, “PubChem BioAssay data set” (2004):
Active and inactive are the calls of the source.

How the values were obtained:
[1] = inhibitors of clade B AD8 Env fusion, dose response, cell-based, cherry-pick (AID 652062); format: functional;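 further: luciferase signal from cell-cell fusion driven by HIV-1 clade B AD8 Env; potency is for inhibitors of fusion seen as a drop in luminescence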
[2] = ZM109 Env clade C HIV-1 fusion inhibitors, dose response, HeLa effector, CEM target cells, luciferase, cherry-pick (AID 652058); format: functional, cell-based
[3] = off-target signal loss in HeLa-CEM21 co-culture – HeLa F-luc CTL cells, cherry-picked, counter-screen for HIV-1 Env fusion inhibitor project, dose response (AID 652040); format: functional, cell-based;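 further: potency for signal decrease marking cytotoxic or nonspecific inhibition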
[4] = inhibitors of HIV Env-driven cell fusion, dose response, cherry-pick (AID 652057); format: functional, cell-based
[5] = Shn3 3'UTR reporter inhibitors, dose response, cell-based, Clone20 osteoblasts, firefly luciferase, cherry-picked (AID 624132); format: functional;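 further: firefly luciferase luminescence from reporter carrying the Shn3 3'UTR in osteoblasts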
[6] = target: T1, Heat shock factor protein 1 (Mus musculus, UniProt P38532); assay: inhibition of MG132-induced HSE-luciferase signal, confirmation, cell-based, NIH3T3, luminescence, dose retest (AID 2382); format: functional;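 further: NIH3T3 fibroblasts with HSF1-driven luciferase reporter stressed by proteasome inhibitor MG132; luminescence from HSF1-driven luciferase expression after 8 hours of MG132 stress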
T1 sequence (P38532 whole entry): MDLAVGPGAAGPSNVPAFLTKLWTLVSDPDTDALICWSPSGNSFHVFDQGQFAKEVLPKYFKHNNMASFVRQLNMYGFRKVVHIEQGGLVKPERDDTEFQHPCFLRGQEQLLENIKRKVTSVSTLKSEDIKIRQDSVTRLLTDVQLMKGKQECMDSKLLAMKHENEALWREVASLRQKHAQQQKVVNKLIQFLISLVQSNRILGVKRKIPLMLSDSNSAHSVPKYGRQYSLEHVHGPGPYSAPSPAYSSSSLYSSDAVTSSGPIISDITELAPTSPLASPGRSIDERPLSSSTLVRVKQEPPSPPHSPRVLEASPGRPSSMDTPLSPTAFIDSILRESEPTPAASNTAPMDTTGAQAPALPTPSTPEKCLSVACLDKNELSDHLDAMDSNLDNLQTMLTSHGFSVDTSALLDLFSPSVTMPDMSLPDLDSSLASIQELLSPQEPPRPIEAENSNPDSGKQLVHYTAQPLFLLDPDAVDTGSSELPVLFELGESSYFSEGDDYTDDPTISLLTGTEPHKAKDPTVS

[7] = MC4R antagonists, dose response, counter-screen for LGR2 antagonist project, cell-based, plate reader, cherry pick (AID 743444); format: functional;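 further: transfected HEK 293 cells stimulated with alpha-MSH peptide; potency of inhibitors of the alpha-MSH evoked signal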
[8] = LGR2 antagonists, dose response, cell-based, HEK293, CRE-luciferase reporter, cherry pick, set 2 (AID 743343); format: functional;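 further: transfected cells were stimulated with diluted bursicon conditioned medium after compound addition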
[9] = control 3'UTR Renilla luciferase suppression, dose response, counter-screen for Shn3 inhibitor project, cell-based, Clone20-Shn3RL, cherry-picked (AID 624133); format: functional
[10] = A549 cell cytotoxicity, dose response, cytotoxicity control, plate reader, cherry-pick, antagonist series (AID 743412); format: functional, cell-based
[11] = target: T2, Protein RecA (Mycobacterium tuberculosis, UniProt P9WHJ3); assay: Fluorescence Cell-Free Homogeneous Dose Retest to Identify Inhibitors of RecA-Intein Splicing Activity. [Related pubchem assays (depositor defined):AID2097, AID2223, AID489010, AID492950]; format: functional
T2 sequence (P9WHJ3 whole entry): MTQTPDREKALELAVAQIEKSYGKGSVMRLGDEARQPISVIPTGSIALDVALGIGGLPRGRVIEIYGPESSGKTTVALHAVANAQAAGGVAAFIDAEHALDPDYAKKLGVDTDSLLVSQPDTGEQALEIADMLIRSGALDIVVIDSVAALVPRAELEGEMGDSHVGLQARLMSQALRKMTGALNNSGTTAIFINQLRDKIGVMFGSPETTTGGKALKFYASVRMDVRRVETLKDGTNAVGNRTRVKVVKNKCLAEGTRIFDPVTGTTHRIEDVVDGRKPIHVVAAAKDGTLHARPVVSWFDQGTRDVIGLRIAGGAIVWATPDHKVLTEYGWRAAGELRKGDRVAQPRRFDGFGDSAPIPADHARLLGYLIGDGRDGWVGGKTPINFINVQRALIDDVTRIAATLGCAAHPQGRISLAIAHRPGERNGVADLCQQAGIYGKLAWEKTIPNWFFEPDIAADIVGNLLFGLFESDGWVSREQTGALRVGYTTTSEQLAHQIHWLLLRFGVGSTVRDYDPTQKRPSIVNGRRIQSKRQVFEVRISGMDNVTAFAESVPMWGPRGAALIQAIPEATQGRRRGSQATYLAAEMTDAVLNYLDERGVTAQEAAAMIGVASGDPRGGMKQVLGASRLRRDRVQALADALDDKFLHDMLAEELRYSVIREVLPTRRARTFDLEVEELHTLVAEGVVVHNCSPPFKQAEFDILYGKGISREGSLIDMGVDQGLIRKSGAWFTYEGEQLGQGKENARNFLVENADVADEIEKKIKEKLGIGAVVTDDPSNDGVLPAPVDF

[12] = target: T3, Histone-lysine N-methyltransferase NSD2 (Homo sapiens, UniProt O96028); format: biochemical
T3 sequence (O96028 whole entry): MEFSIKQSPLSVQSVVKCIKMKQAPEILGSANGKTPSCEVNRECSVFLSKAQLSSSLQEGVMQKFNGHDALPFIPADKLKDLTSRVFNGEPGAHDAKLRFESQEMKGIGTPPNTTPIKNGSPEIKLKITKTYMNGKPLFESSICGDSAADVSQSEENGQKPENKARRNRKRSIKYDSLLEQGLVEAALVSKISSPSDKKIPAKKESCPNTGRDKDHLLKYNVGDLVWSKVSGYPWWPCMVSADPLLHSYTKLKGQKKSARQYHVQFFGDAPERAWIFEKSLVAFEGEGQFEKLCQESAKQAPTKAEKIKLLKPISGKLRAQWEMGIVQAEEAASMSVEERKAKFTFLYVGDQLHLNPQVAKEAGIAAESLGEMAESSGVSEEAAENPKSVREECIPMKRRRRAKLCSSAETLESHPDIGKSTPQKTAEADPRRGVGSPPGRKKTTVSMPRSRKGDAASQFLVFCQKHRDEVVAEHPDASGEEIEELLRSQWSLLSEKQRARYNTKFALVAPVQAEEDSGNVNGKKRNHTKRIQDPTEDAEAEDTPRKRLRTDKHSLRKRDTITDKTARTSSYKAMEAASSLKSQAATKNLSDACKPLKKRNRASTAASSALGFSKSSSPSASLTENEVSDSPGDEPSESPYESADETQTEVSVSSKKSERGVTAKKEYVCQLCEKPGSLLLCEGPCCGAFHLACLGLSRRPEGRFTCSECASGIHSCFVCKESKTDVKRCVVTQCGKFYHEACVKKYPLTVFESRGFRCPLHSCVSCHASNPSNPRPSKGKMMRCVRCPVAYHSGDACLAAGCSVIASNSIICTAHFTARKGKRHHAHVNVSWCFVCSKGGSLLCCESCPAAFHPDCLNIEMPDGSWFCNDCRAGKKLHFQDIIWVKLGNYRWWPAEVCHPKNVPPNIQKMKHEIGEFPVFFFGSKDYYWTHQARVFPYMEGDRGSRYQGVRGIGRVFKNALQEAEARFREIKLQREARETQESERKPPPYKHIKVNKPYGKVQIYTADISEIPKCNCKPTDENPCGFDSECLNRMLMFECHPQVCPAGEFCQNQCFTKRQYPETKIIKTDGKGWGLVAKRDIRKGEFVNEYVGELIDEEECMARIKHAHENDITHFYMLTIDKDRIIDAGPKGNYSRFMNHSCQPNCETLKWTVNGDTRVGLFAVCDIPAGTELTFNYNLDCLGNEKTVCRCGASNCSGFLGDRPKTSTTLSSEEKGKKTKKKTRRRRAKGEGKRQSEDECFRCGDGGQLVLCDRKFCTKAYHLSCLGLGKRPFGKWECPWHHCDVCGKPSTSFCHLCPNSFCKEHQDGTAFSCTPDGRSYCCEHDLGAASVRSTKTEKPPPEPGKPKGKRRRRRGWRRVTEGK

[13] = cells; format: functional, cell-based
[14] = cells; format: functional, cell-based; remark: listed apart in the source
[15] = target: T4, Oxysterols receptor LXR-beta (Homo sapiens, UniProt P55055); format: functional, cell-based;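 further: agonist activity at LXR measured by a cell-based luminescence readout across a dose range, run as a counterscreen for daf-12 agonists; HEK293 cells with Gal4-LXR fusion and GAL4-driven luciferase reporter; potency for activation of Gal4-LXR reporter so compounds are agonists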
T4 sequence (P55055 whole entry): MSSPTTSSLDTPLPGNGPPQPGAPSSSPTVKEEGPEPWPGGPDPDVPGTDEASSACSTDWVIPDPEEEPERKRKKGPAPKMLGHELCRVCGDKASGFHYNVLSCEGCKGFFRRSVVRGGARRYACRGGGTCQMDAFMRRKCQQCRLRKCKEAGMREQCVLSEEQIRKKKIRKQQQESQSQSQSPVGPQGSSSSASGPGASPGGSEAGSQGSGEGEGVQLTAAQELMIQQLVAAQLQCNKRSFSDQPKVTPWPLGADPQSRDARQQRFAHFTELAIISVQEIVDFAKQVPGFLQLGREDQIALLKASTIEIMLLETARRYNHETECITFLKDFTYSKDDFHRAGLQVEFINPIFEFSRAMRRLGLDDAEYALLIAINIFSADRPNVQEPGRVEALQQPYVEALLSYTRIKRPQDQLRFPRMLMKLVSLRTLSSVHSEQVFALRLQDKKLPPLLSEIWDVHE

[16] = target: T5, Protein skinhead-1 (Caenorhabditis elegans, UniProt P34707); format: functional
T5 sequence (P34707 whole entry): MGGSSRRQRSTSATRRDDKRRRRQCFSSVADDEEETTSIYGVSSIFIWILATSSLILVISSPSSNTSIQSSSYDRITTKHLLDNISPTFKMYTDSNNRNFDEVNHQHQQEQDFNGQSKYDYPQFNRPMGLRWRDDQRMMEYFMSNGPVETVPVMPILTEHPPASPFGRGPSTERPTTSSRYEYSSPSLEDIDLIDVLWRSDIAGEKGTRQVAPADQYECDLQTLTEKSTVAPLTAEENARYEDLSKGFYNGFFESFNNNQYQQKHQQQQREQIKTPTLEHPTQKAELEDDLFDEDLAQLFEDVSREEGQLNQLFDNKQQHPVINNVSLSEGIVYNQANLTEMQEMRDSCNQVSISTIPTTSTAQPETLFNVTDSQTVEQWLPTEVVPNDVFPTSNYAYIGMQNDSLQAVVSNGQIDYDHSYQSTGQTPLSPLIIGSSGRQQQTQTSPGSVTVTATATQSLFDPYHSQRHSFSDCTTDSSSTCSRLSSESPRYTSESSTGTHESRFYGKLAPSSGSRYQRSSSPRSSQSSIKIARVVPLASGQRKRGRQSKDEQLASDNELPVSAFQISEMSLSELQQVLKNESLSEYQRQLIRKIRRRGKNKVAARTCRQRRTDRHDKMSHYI

[17] = test system: HEK293; assay: inhibitors of LMP1-driven NF-kB reporter, dose response, cell-based, HEK293, luciferase, cherry-pick (AID 588343); format: functional; details: Homo sapiens
[18] = inhibitors of PGC1a acetylation in cells, dose response, cell-based, cherry-picked samples (AID 720514); format: functional;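 further: potency may reflect raised or lowered acetylation signal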
[19] = target: Genome polyprotein (dengue virus type 2, UniProt P29990); assay: Dengue-2 NS5 methyltransferase inhibitors, primary screen, biochemical, confirmation dose response (AID 588689); format: functional
Chain of Genome polyprotein (P29990 2492-3391 limits assumed): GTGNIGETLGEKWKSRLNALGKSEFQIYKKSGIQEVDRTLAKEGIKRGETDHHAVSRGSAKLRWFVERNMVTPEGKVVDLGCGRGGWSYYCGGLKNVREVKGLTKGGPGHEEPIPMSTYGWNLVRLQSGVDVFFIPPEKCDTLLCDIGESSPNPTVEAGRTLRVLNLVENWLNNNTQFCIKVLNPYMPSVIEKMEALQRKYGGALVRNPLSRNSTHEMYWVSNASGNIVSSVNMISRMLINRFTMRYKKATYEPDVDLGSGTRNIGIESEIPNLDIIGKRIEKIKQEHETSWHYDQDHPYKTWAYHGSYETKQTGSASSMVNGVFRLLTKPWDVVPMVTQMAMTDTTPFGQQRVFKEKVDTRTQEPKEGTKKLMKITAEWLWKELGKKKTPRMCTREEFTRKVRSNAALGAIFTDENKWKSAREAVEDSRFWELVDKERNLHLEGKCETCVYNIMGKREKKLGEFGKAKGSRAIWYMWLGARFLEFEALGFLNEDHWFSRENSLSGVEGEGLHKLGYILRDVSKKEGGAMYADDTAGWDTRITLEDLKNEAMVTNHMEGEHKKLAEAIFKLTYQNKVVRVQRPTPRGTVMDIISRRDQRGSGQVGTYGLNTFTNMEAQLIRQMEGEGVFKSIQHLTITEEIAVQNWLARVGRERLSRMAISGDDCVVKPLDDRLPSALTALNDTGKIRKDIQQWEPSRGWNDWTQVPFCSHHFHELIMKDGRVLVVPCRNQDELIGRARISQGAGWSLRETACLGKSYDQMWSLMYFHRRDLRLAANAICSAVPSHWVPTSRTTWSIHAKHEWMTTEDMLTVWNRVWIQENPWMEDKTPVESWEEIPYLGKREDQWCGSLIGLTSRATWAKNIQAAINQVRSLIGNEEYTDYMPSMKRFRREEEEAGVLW

[20] = cytotoxicity in OVCAR8 ovarian cancer cells, dose response, PAX8 project, cell-based, plate reader, dry powder samples (AID 743197); format: functional; details: OVCAR-8
[21] = target: Paired box protein Pax-8 (Homo sapiens, UniProt Q06710); assay: inhibitors of PAX8-driven TPO luciferase reporter, dose response, RMG-I cells, cherry-pick (AID 687027); format: functional, cell-based;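 further: luciferase reporter driven by Pax8 target thyroperoxidase promoter measured by SteadyGlo luminescence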
Chain of Paired box protein Pax-8 (Q06710 whole entry): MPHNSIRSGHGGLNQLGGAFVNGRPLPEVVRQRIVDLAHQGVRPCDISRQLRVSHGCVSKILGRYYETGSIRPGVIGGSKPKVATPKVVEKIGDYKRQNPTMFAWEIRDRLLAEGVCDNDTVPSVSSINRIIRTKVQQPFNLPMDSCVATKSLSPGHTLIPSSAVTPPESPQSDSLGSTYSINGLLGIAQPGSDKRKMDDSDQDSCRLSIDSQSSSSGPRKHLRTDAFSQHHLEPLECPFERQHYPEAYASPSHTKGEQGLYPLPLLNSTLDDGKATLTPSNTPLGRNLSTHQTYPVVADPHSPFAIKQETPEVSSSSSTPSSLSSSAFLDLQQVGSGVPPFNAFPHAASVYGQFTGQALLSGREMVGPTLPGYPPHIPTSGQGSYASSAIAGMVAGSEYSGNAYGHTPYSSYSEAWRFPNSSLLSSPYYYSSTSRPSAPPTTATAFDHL

[22] = IGROV1 ovarian cancer cell cytotoxicity, dose response, PAX8 inhibitor project, plate reader, dry powder samples (AID 743043); format: functional, cell-based; details: IGROV-1
[23] = NIH:OVCAR-3 ovarian cancer cell cytotoxicity, dose response, PAX8 inhibitor project, plate reader, dry powder samples (AID 743044); format: functional, cell-based
[24] = target: Large T antigen (Simian virus 40, UniProt P03070); format: functional, Betapolyomavirus macacae;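 further: Confirmatory-stage PubChem screen for compounds that inhibit SV40 T antigen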
Chain of Large T antigen (P03070 whole entry): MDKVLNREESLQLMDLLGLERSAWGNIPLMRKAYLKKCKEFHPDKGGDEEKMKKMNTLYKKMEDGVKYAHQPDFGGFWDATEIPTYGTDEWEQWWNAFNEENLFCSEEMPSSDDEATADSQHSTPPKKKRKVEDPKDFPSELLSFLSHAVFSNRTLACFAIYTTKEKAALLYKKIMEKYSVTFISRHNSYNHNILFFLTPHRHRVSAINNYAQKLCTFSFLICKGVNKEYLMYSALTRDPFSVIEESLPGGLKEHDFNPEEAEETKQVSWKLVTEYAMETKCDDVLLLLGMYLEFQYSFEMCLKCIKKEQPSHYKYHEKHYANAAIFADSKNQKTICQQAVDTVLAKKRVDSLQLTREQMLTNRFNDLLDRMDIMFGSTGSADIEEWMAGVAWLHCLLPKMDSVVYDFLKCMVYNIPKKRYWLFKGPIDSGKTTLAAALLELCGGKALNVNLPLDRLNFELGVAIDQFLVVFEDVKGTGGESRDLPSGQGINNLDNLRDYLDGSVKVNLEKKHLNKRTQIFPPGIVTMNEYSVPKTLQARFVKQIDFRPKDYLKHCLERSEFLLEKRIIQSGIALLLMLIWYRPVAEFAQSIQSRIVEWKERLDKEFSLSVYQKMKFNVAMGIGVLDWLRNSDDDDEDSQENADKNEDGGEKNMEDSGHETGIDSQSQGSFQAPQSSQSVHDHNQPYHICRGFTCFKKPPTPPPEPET

## CCOC(=O)c1c(C)[nH]c(C)c1C(=O)COC(=O)[C@@H](NC(=O)c1ccccc1OCC)C(C)C
[1]
  AC50: 2.19 µM (active)
[2]
  AC50: 2.71 µM (active)
[3]
  AC50: 5.72 µM (active)
[4]
  AC50: 3.71 µM (active)

## O=C(O)c1cccc(COc2ccc(CO)cc2Cl)c1
[5]
  AC50: 1.04 µM (active)
[6]
  EC50: 0.375 µM (active)
[7]
  AC50: 0.274 µM (active)
[8]
  AC50: 0.296 µM (active)
[9]
  AC50: 35 µM (active)
[10]
  AC50: > 52 µM (inactive)

## CCCCNC(=O)c1c(N)n(Cc2ccc3c(c2)OCO3)c2nc3ccccc3nc12
[11]
  EC50: 56.3 µM (active)
[12]
  AC50: 19.4 µM (active)

## CCOC(=O)C(NCCc1ccccc1F)(NC(=O)CC)C(F)(F)F (stereo not given)
[13]
  IC50: > 29.9 µM (inactive)
[14]
  EC50: > 29.9 µM (inactive)

## N=C1/C(=C/c2ccc(OCc3ccccc3F)cc2)C(=O)N=C2SC(CC(=O)N3CCOCC3)=NN12
[15]
  EC50: > 67.5 µM (inactive)

## Brc1ccc(-c2noc(-c3ccccc3)n2)o1
[16]
  IC50: > 100 µM (inactive)
[15]
  EC50: > 67.6 µM (inactive)

## Cc1cc(C(=O)CSc2cccc[n+]2[O-])c(C)n1-c1ccccc1
[15]
  EC50: > 67.5 µM (inactive)

## C=CCNC1=NN=C(c2cc(C)n(CCOC)c2C)CS1
[1]
  AC50: 4.19 µM (active)
[2]
  AC50: 8.09 µM (active)
[3]
  AC50: 3.9 µM (active)
[4]
  AC50: 1.56 µM (active)
[17]
  AC50: 2.08 µM (active)

## Cc1cc(O)nc(SCC(=O)c2ccc(F)c(C)c2)n1
[18]
  AC50: 26.9 µM (active)

## Cc1ccc(S(=O)(=O)/N=C2\C=C(NS(=O)(=O)c3ccc(C)cc3)C(=O)c3ccccc32)cc1
[12]
  AC50: 2.98 µM (active)
[19]
  IC50: 30.6 µM (active)

## O=c1c2ccccc2nnn1CCc1ccccc1
[15]
  EC50: > 67.4 µM (inactive)

## Cc1ccc(S(=O)(=O)Nc2ccc3c(c2)C(=O)N([C@@H](C)CO)C[C@H](C)[C@@H](CN(C)Cc2ccc(C(F)(F)F)cc2)OCCCC[C@@H](C)O3)cc1
[20]
  AC50: 30.4 µM (active)
[21]
  AC50: 5.99 µM (active)
[22]
  AC50: 33.1 µM (active)
[23]
  AC50: 11.4 µM (active)

## COc1cccc(-c2ccc([C@@H]3[C@H]4CNC[C@@H]3N4Cc3ccc4c(c3)OCO4)cc2)c1
[18]
  AC50: 34.3 µM (active)

## Cc1cc(N/N=C/c2ccc(O)cc2O)nc(N2CCOCC2)n1
[13]
  IC50: > 29.9 µM (inactive)
[24]
  IC50: > 100 µM (active)
[14]
  EC50: > 29.9 µM (inactive)
